What was measured:
[1] = molecular target: T1, PhqK (Penicillium fellutanum, UniProt L0E4H0); assay: crystal structures; type: binding; conditions: out conformation with and without substrate
[2] = molecular target: T1, PhqK; assay: Michaelis-Menten kinetics of spirocyclization; type: biochemical; conditions: FAD-dependent monooxygenase reaction; details in supplement

T1 sequence (L0E4H0 whole entry): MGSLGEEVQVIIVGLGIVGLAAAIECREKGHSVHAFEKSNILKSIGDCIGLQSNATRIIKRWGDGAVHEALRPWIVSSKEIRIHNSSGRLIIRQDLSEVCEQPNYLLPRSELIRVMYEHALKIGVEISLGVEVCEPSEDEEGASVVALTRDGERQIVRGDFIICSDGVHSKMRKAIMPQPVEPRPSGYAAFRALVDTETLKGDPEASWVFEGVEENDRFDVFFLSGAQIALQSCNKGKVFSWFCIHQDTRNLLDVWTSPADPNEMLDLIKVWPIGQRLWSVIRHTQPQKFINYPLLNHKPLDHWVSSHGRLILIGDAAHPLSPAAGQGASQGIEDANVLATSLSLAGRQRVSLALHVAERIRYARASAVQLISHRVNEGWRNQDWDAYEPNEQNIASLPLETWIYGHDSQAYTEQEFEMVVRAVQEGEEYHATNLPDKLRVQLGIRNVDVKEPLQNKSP

Row | Compound | crystal structures (ligand-free 1.71 Å and substrate complexes) [1] | Km [2]
1 | Cc1cc2nc3c(=O)[nH]c(=O)nc-3n(C[C@H](O)[C@H](O)[C@H](O)COP(=O)(O)OP(=O)(O)OC[C@H]3O[C@@H](n4cnc5c(N)ncnc54)[C@H](O)[C@@H]3O)c2cc1C [FAD] | substrate bound and unbound PhqK structures, the flavin was observed in the “out” conformation | 
2 | paraherquamide L [compound 15] |  | 19.4 ± 5.2 µM

Source: PMC7065246 (Journal of the American Chemical Society, 2020)
